Read-outs that look alike come from different tables or passages of the source.
Tests used:
[1] = General cytotoxicity test on HepG2 cells; format: cell-based; settings: human, HepG2 cells; 72 h incubation; 200 to 0.78 µM; average values of several tests; read-out: Hep-G2 CC50, mkM
Protocol: Cell viability was assessed using the above method. Table 6. […] The results are presented as average values of activity obtained in several tests.

[2] = Enzyme stability in human liver S9 fractions; format: in vitro ADME; settings: 0,5 mg/mL pooled human liver S9 fractions, 10 µM compound, 37°C, pH=7,4; for microsomal CLint at 10 µM: pH 7.4
Protocol: Measuring of candidates' enzyme stability enabled estimation of the stability of the present compounds towards the action of enzymes in human liver S9 fractions.
Enzyme degradation rate was measured by incubating the reaction mixture in a dry block thermostat at 37°C, said reaction mixture comprising 0,5 mg/mL of pooled human liver S9 fractions (XenoTech, USA, cat#H0610), 10 µM compound, 2 mM β-nicotinamide adenine dinucleotide (Carbosynth, UK, cat#NN10871) and 4 mM magnesium chloride in 0,1 M sodium-phosphate buffer, pH=7,4. The reaction was quenched with acetonitrile (100 µL of acetonitrile / 100 µL of the reaction mixture). After quenching, the samples were centrifuged at 10000 rpm for 10 minutes. Supernatant fluid was tested by chromatographic technique using Agilent1200 (Agilent, USA). Chromatographic analysis was performed in a gradient elution regime with a flow rate of 1 mL/min. A graph of the logarithm of substance's peak area as a function of time was made.

MV4-11 = assay: Cell-based antiproliferative test (AlamarBlue), MV4-11; settings: 120 h incubation, average values of several tests, read-out: MV-4-11 IC50, mkM
[3] = Chemical stability in human blood plasma; format: in vitro ADME; settings: pooled human blood plasma; 10 µM; 4 hours at 37°C; substance amount in % after thermostatting
Method in brief: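 Pooled plasma from ten healthy human donors; compound diluted from 10 mM DMSO stock to 10 µm final and incubated 4 h at 37°C. After acetonitrile protein precipitation, HPLC peak areas before and after incubation were compared; value is % compound remaining.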

Caco-2 cell monolayer = assay: Permeability through Caco-2 cell monolayer; format: in vitro ADME; settings: efflux = Papp B-A / Papp A-B
Method in brief: (§1)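 Caco-2 monolayers grown for 21 days (Lucifer Yellow integrity check) received 10 µM compound apically at pH 6.5 (A→B) or basolaterally at pH 7.4 with 1% BSA on the basolateral side (B→A). After 2 h at 37 °C, both chambers were quantified by HPLC. Efflux ratio = Papp B→A / Papp A→B.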

[4] = Permeability through Caco-2 cell monolayer; format: in vitro ADME; settings: human, Caco-2; for Papp A→B at 2 h, 10 µM: A->B transfer, pH 6.5 -> pH 7.4, 2 hours at 37 °C; for efflux ratio at 2 h, 10 µM: efflux = Papp B-A / Papp A-B
Method in brief: as §1

[5] = Chemical stability in simulated gastric fluid (SGF); format: physicochemical; settings: SGF without enzymes, pH=1,4; 10 µm; 2 hours at 37°C; substance amount in % after thermostatting
Method in brief: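 Compounds at […] (diluted from DMSO stock) were incubated for 2 h at 37 °C in enzyme-free simulated gastric fluid, pH=1,4. HPLC peak areas before and after incubation gave the % of compound remaining.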

[6] = Enzyme stability in human liver microsomes; format: in vitro ADME; settings: pH 7.4; 0,5 mg/mL pooled human liver microsomes; 10 µM compound; 37°C; pH=7,4
Method in brief: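 Pooled human liver microsomes (0,5 mg/mL) incubated at 37 °C with 10 µM compound, 2 mM β-NAD and 4 mM MgCl2 in 0,1 M sodium phosphate, pH 7,4. Samples quenched with acetonitrile and analysed by HPLC. Elimination rate constant taken from the slope of log peak area versus time, giving t1/2 and CLint.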

KG-1 = assay: Cell-based antiproliferative test (AlamarBlue), KG-1; settings: 120 h incubation, average values of several tests, read-out: KG-1 IC50, mkM
HL-60 = assay: Cell-based antiproliferative test (AlamarBlue), HL-60; settings: Homo sapiens, HL-60, 120 h, 120 h incubation; average values of several tests; read-out: HL-60 IC50, mkM
Protocol: Antiproliferative activity of CDK8 inhibitors according to the present invention was measured in a cell-based test on continuous cell cultures MV4-11 (biphenotypic myelomonocytic leukemia, ATCC® CRL-9591™), KG-1 (acute myeloid leukemia, ATCC® CCL-246™), HL-60 (acute promyelocytic leukemia, ATCC® CCL-240™) using a vital stain AlamarBlue (ThermoFisher, #DAL1100). The cells were grown in RPMI-1640 (PanEco, #C330p) medium with addition of 10% FBS (Gibco, #16140-071); washed and resuspended in culture medium with 10% FBS (Gibco, #16140-071) in 96-well culture plates (Corning, #3599) with ≈ 10 ×10^3 cells in […] of medium per well. The compounds in question were dissolved in DMSO and diluted with a medium with 10% FBS (Gibco, #16140-071) to a final concentration ranging form 0 to 100 µM. […] of diluted compounds were then added to each well (final DMSO concentration was less than 1%) and incubated under 5% CO2 atmosphere at 37°C for 120 h. After incubating, 15 µL of AlamarBlue (ThermoFisher, #DAL1100) reagent was added per well, contents of plates were mixed in an orbital shaker (Biosan, Latvia) and further incubated for 3-5 h at 37°C under 5% CO2 atmosphere. Number of living cells was estimated using a microplate spectrophotometer (Tecan Infinite M200Pro, Switzerland) measuring fluorescent signal at the excitation wavelength (λEx) of 540 nm and emission wavelength (λEm) of 590 nm.
IC50 was calculated using Magellan 7.2 software (Tecan, Switzerland) approximating experimental points by four-parameter logistic model with the optimization by Levenberg-Marquardt (table 7, table 7).

CO[C@@H]1CCCN(C(=O)c2cnc3cncc(-c4ccc(-c5cnn(C)c5)cc4)c3c2)C1 [CDK8-3-21, (R)-(3-Methoxypiperidin-1-yl)(5-(4-(1-methyl-1H-pyrazol-4-yl)phenyl)-1,7-naphthyridin-3-yl)methanone]
CC50 at 72 h [1]: > 100 µM | microsomal CLint at 10 µM [2]: 12.9 µL/min/mg | IC50 (MV4-11; Homo sapiens, MV4-11, 120 h): 764 nM

CO[C@@H]1CCN(C(=O)c2cnc3cncc(-c4ccc(-c5cnn(C)c5)cc4)c3c2)C1 [CDK8-3-19, (R)-(3-Methoxypyrrolidin-1-yl)(5-(4-(1-methyl-1H-pyrazol-4-yl)phenyl)-1,7-naphthyridin-3-yl)methanone]
CC50 at 72 h [1]: > 100 µM | microsomal CLint at 10 µM [2]: 2.9 µL/min/mg | IC50 (MV4-11; Homo sapiens, MV4-11, 120 h): 912 nM

CCN(CC)C(=O)c1cnc2cncc(-c3ccc(-c4cnn(C)c4)cc3)c2c1 [CDK8-3-23, N,N-Diethyl-5-(4-(1-methyl-1H-pyrazol-4-yl)phenyl)-1,7-naphthyridine-3-carboxamide]
CC50 at 72 h [1]: > 100 µM | microsomal CLint at 10 µM [2]: 9.2 µL/min/mg | IC50 (MV4-11; Homo sapiens, MV4-11, 120 h): 413 nM

Cn1cc(-c2ccc(-c3cnc(N)c4ncc(C(=O)NCC5CC5)cc34)cc2)cn1 [CDK8-3-40, 8-Amino-N-(cyclopropylmethyl)-5-(4-(1-methyl-1H-pyrazol-4-yl)phenyl)-1,7-naphthyridine-3-carboxamide]
CC50 at 72 h [1]: 200 µM | microsomal CLint at 10 µM [2]: 2.95 µL/min/mg | IC50 (MV4-11; Homo sapiens, MV4-11, 120 h): 9 nM

COc1cc(-c2cnc3[nH]cc(C(=O)c4ccccn4)c3c2)ccc1N(C)C [CDK8-4-21, (5-(4-(Dimethylamino)-3-methoxyphenyl)-1H-pyrrolo[2,3-b]pyridin-3-yl)(pyridin-2-yl)methanone]
Stability in blood plasma, % [3]: 100% | CC50 at 72 h [1]: 4.7 µM | efflux (Caco-2 cell monolayer): 0.09 | Papp A→B at 2 h, 10 µM [4]: 106 ×10⁻⁶ cm/s | IC50 (MV4-11; Homo sapiens, MV4-11, 120 h): 740 nM | Stability in SGF, % [5]: 100%

COCCN(C)C(=O)c1cnc2cncc(-c3ccc(-c4cnn(C)c4)cc3)c2c1 [CDK8-3-25, N-(2-Methoxyethyl)-N-methyl-5-(4-(1-methyl-1H-pyrazol-4-yl)phenyl)-1,7-naphthyridine-3-carboxamide]
CC50 at 72 h [1]: > 100 µM | microsomal CLint at 10 µM [2]: 3.3 µL/min/mg | Papp A→B at 2 h, 10 µM [4]: 29.3 ×10⁻⁶ cm/s | efflux ratio at 2 h, 10 µM [4]: 0.6 | IC50 (MV4-11; Homo sapiens, MV4-11, 120 h): 134 nM

COc1ccc(-c2cnc3[nH]cc(C(=O)c4cccnc4)c3c2)c(C#N)c1 [CDK8-4-28, 5-Methoxy-2-(3-nicotinoyl-1H-pyrrolo[2,3-b]pyridin-5-yl) benzonitrile]
Stability in blood plasma, % [3]: 100% | CC50 at 72 h [1]: > 200 µM | microsomal CLint at 10 µM [6]: 6.8 µL/min/mg | efflux (Caco-2 cell monolayer): 0.03 | Papp A→B at 2 h, 10 µM [4]: 68.9 ×10⁻⁶ cm/s | IC50 (MV4-11; Homo sapiens, MV4-11, 120 h): > 1000 nM | Stability in SGF, % [5]: 100%

Cn1cc(-c2ccc(-c3cnc(N)c4ncc(C(=O)N5CCOCC5)cc34)cc2)cn1 [CDK8-3-27, (8-Amino-5-(4-(1-methyl-1H-pyrazol-4-yl)phenyl)-1,7-naphthyridin-3-yl) (morpholino)methanone]
Stability in blood plasma, % [3]: 94.2% | CC50 at 72 h [1]: 19.4 µM | microsomal CLint at 10 µM [2]: 1.55 µL/min/mg | Papp A→B at 2 h, 10 µM [4]: 22.6 ×10⁻⁶ cm/s | efflux ratio at 2 h, 10 µM [4]: 0.9 | IC50 (MV4-11; Homo sapiens, MV4-11, 120 h): 66 nM

Cn1cc(-c2ccc(-c3cnc(N)c4ncc(C(=O)N5CCC5)cc34)cc2)cn1 [CDK8-3-26, (8-Amino-5-(4-(1-methyl-1H-pyrazol-4-yl)phenyl)-1,7-naphthyridin-3-yl) (azetidin-1-yl)methanone]
Stability in blood plasma, % [3]: 95.8% | CC50 at 72 h [1]: 4.9 µM | microsomal CLint at 10 µM [2]: 3.25 µL/min/mg | IC50 (KG-1; Homo sapiens, KG-1): 3 nM | Papp A→B at 2 h, 10 µM [4]: 53.7 ×10⁻⁶ cm/s | efflux ratio at 2 h, 10 µM [4]: 0.3 | IC50 (MV4-11; Homo sapiens, MV4-11, 120 h): 11 nM

Cn1cc(-c2ccc(-c3cnc(N)c4ncc(C(=O)NCCO)cc34)cc2)cn1 [CDK8-3-42, 8-Amino-N-(2-hydroxyethyl)-5-(4-(1-methyl-1H-pyrazol-4-yl)phenyl)-1,7-naphthyridine-3-carboxamide]
Stability in blood plasma, % [3]: 100% | CC50 at 72 h [1]: 15.9 µM | microsomal CLint at 10 µM [2]: 0.5 µL/min/mg | IC50 (KG-1; Homo sapiens, KG-1): 9 nM | Papp A→B at 2 h, 10 µM [4]: 11.8 ×10⁻⁶ cm/s | efflux ratio at 2 h, 10 µM [4]: 1.6 | IC50 (MV4-11; Homo sapiens, MV4-11, 120 h): 28 nM

CN(C)C(=O)c1cnc2cncc(-c3ccc(-c4cnn(C)c4)cc3)c2c1 [CDK8-3-22, N,N-Methyl-5-(4-(1-methyl-1H-pyrazol-4-yl)phenyl)-1,7-naphthyridine-3-carboxamide]
CC50 at 72 h [1]: > 100 µM | microsomal CLint at 10 µM [2]: 3 µL/min/mg | IC50 (MV4-11; Homo sapiens, MV4-11, 120 h): 432 nM

Cn1cc(-c2ccc(-c3cncc4ncc(C(=O)NCC5CC5)cc34)cc2)cn1 [CDK8-3-39]
Stability in S9, Clint [2]: 10.3 µL/min/mg | IC50 (KG-1): 5 nM | IC50 (MV4-11): 55 nM

COCCNC(=O)c1cnc2c(N)ncc(-c3ccc(-c4cnn(C)c4)cc3)c2c1 [CDK8-3-24, 8-Amino-N-(2-methoxyethyl)-5-(4-(1-methyl-1H-pyrazol-4-yl)phenyl)-1,7-naphthyridine-3-carboxamide]
Stability in blood plasma, % [3]: 89.7% | CC50 at 72 h [1]: > 200 µM | microsomal CLint at 10 µM [2]: 4.6 µL/min/mg | Papp A→B at 2 h, 10 µM [4]: 17 ×10⁻⁶ cm/s | efflux ratio at 2 h, 10 µM [4]: 1.1 | IC50 (MV4-11; Homo sapiens, MV4-11, 120 h): 99 nM

COCCN(C)C(=O)c1cnc2c(N)ncc(-c3ccc(-c4cnn(C)c4)cc3)c2c1 [CDK8-3-32]
Stability in blood plasma, % [3]: 100% | CC50 at 72 h [1]: 20.7 µM | microsomal CLint at 10 µM [2]: 3.8 µL/min/mg | IC50 (KG-1; Homo sapiens, KG-1): < 10 nM | Papp A→B at 2 h, 10 µM [4]: 24.9 ×10⁻⁶ cm/s | efflux ratio at 2 h, 10 µM [4]: 0.7 | IC50 (MV4-11; Homo sapiens, MV4-11, 120 h): 10 nM

Cn1cc(-c2ccc(-c3cncc4ncc(C(=O)N5CCC5)cc34)cc2)cn1 [CDK8-3-14, Azetidin-1-yl-(5-(4-(1-methyl-1H-pyrazol-4-yl)phenyl)-1,7-naphthyridin-3-yl) methanone]
Stability in blood plasma, % [3]: 100% | CC50 at 72 h [1]: > 100 µM | microsomal CLint at 10 µM [6]: 13.6 µL/min/mg | IC50 (KG-1; Homo sapiens, KG-1): 50 nM | IC50 (HL-60): 69.8 µM | Papp A→B at 2 h, 10 µM [4]: 39.8 ×10⁻⁶ cm/s | efflux ratio at 2 h, 10 µM [4]: 1.35 | IC50 (MV4-11; Homo sapiens, MV4-11, 120 h): 200 nM | Stability in SGF, % [5]: 100%

From EP3666770A1, “NOVEL HETEROCYCLIC COMPOUNDS AS CDK8/19 INHIBITORS” (Joint Stock Company "Biocad", priority 2017, dated 2019)
